Some results are limits rather than exact numbers.

One assay concerns the target T1, FLT3 (Homo sapiens, UniProt P36888).
T1 construct: purchased Carna 08-145
T1 sequence (P36888 27-993): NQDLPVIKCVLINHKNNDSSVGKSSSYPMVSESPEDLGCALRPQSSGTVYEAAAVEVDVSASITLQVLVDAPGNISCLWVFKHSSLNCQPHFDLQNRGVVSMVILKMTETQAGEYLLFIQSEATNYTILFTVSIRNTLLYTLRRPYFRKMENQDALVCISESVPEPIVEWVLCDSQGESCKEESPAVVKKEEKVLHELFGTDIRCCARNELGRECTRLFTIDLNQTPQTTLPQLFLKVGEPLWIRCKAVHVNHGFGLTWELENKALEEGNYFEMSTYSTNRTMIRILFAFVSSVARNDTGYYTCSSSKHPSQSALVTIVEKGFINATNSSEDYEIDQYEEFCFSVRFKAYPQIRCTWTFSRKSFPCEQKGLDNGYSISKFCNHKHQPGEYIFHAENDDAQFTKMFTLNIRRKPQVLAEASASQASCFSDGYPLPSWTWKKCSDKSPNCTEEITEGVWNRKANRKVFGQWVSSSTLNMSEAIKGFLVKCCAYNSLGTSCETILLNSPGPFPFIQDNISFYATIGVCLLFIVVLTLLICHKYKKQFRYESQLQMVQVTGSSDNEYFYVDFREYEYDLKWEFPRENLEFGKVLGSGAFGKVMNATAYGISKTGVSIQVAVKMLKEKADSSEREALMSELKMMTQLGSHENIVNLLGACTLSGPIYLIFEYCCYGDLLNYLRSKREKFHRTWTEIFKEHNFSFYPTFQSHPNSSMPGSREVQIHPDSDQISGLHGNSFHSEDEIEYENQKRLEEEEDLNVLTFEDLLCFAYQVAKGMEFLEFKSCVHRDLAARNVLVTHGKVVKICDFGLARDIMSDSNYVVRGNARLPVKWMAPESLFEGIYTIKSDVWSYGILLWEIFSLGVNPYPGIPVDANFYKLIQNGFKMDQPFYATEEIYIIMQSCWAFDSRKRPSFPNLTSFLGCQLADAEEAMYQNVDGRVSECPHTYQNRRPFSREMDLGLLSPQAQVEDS
Nature of the assay: FLT3 kinase in vitro inhibitory activity experiment (Caliper mobility shift, conversion rate). Type of assay: biochemical. Conditions: IC50 class, read-out: Enzyme activity FLT3. The essentials: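 FLT3 was pre-incubated with compound for 10 min at room temperature, then the reaction was started with ATP plus Kinase substrate 2 and run 30 min at room temperature before stop solution. Substrate conversion was read by Caliper mobility shift.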

The test system of a further assay is MV4;11 cells. Nature of the assay: MV4;11 in vitro inhibition of proliferation assay (CellTiter-Glo, 72 hours). Type of assay: cell-based. Conditions: Homo sapiens, MV4-11, 72 h, IC50 class, read-out: Inhibitory activity of cell proliferation MV4;11. An outline of the steps: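 MV4;11 cells in IMDM/10% FBS, 2000 per well, were exposed to 9-point 3-fold DMSO dilutions from 10 uM (final DMSO 0.3%) in triplicate for 72 hours at 37° C., 5% CO2. Viability was read by CellTiter-Glo luminescence, and IC50 came from a four-parameter fit of inhibition.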
For orientation: ATP-based viability assays read luminescence as a measure of living cells.

`CCc1nc2c(N)ncc(-c3ccc(N4CCC(N5C6CCC5CN(C)C6)CC4)c(OC)c3)c2nc1NC1CCOCC1` [Compound 327, 3-ethyl-8-(3-methoxy-4-(4-(3-methyl-3,8-diazabicyclo[3.2.1]octyl-8-yl)piperidin-1-yl)phenyl)-N2-(tetrahydro-2H-pyran-4-yl)pyridino[3,4-b]pyrazine-2,5-diamine]: the IC50 is ≤ 10 nM at FLT3 and 10 to 100 nM in the assay on MV4;11 cells.

In the case of `CCc1nc2c(N)ncc(-c3ccc(N4CCC(N5CCC(C)(O)CC5)CC4)c(OC)c3)c2nc1NC1CCOCC1` [Compound 328], the values for the IC50 at FLT3 and in the assay on MV4;11 cells were ≤ 10 nM and 10 to 100 nM, respectively.

For the compound `CCc1nc2c(N)ncc(-c3cnn(-c4ccc(C(C)(C)O)nc4)c3)c2nc1N[C@@H]1CC[C@H](O)C1` [Compound 329], the IC50 at FLT3 and with MV4;11 cells was ≤ 10 nM each time.

Consider `CCc1nc2c(N)ncc(-c3cnn(-c4ncc(C(C)(C)O)cn4)c3)c2nc1N[C@@H]1CC[C@H](O)C1` [Compound 330], for which the IC50 on FLT3 is ≤ 10 nM; in the assay on MV4;11 cells it was 10 to 100 nM.

For `CCc1nc2c(N)ncc(-c3cnn(-c4cnc(C(C)(C)O)nc4)c3)c2nc1N[C@@H]1CC[C@H](O)C1` [Compound 331], the IC50 at FLT3 and in the assay on MV4;11 cells was ≤ 10 nM throughout.

For `CCc1nc2c(N)ncc(-c3cnn(-c4cnc(C(C)(C)O)cn4)c3)c2nc1N[C@@H]1CC[C@H](O)C1` [Compound 332], the IC50 on FLT3 and with MV4;11 cells was ≤ 10 nM in each case.

In the case of `CCc1nc2c(N)ncc(-c3cnn(-c4ccc(C(C)(C)O)cc4)c3)c2nc1N[C@@H]1CC[C@H](O)C1` [Compound 333], the IC50 on FLT3 and with MV4;11 cells was ≤ 10 nM throughout.

`CCc1nc2c(N)ncc(-c3cnn(-c4ncc(C#N)cn4)c3)c2nc1N[C@@H]1CC[C@H](O)C1` [Compound 335]: the IC50 on FLT3 and with MV4;11 cells was ≤ 10 nM each time.

`CCc1nc2c(N)ncc(-c3cnn(-c4ccc(C#N)cc4)c3)c2nc1N[C@@H]1CC[C@H](O)C1` [Compound 336]: the IC50 on FLT3 and in the assay with MV4;11 cells was ≤ 10 nM in each case.

Take `CCc1nc2c(N)ncc(-c3cnn(-c4ccc(C#N)nn4)c3)c2nc1N[C@@H]1CC[C@H](O)C1` [Compound 337]: the IC50 is ≤ 10 nM on FLT3 and 10 to 100 nM in the assay on MV4;11 cells.

For `CCc1nc2c(N)ncc(-c3cnn(-c4cnc(C#N)nc4)c3)c2nc1N[C@@H]1CC[C@H](O)C1` [Compound 338], the IC50 at FLT3 and with MV4;11 cells was ≤ 10 nM in each case.

`CCc1nc2c(N)ncc(-c3cnn(-c4cnc(C#N)cn4)c3)c2nc1N[C@@H]1CC[C@H](O)C1` [Compound 339]: the IC50 at FLT3 was ≤ 10 nM; in the assay on MV4;11 cells it was 10 to 100 nM.

Take `CCc1nc2c(N)ncc(-c3cnn(-c4ccc(C(F)F)nc4)c3)c2nc1N[C@@H]1CC[C@H](O)C1` [Compound 340]: the IC50 on FLT3 was ≤ 10 nM; in the assay with MV4;11 cells it was 10 to 100 nM.

In the case of `CCc1nc2c(N)ncc(-c3cnn(-c4ncc(F)cn4)c3)c2nc1N[C@@H]1CC[C@H](O)C1` [Compound 341], the IC50 on FLT3 and in the assay on MV4;11 cells was ≤ 10 nM throughout.

`CCc1nc2c(N)ncc(-c3cnn(-c4ccc(F)c(F)c4)c3)c2nc1N[C@@H]1CC[C@H](O)C1` [Compound 342]: the IC50 was ≤ 10 nM at FLT3 and 10 to 100 nM in the assay with MV4;11 cells.

Regarding `CCc1nc2c(N)ncc(-c3cnn(-c4ccnc(F)c4)c3)c2nc1N[C@@H]1CC[C@H](O)C1` [Compound 343], the IC50 at FLT3 and in the assay with MV4;11 cells was ≤ 10 nM each time.

Take `CCc1nc2c(N)ncc(-c3cnn(-c4ncc(OC(C)C)cn4)c3)c2nc1N[C@@H]1CC[C@H](O)C1` [Compound 344]: the IC50 at FLT3 and in the assay on MV4;11 cells was ≤ 10 nM throughout.

Consider `CCc1nc2c(N)ncc(-c3cnn(-c4ccnc(Cl)c4)c3)c2nc1N[C@@H]1CC[C@H](O)C1` [Compound 345], for which the IC50 at FLT3 and in the assay with MV4;11 cells was ≤ 10 nM in each case.

In the case of `CCc1nc2c(N)ncc(-c3cnn(-c4ncc(C#N)cn4)c3)c2nc1NC1CCOCC1` [Compound 346], the IC50 at FLT3 is ≤ 10 nM; in the assay with MV4;11 cells, 10 to 100 nM.

Regarding `CCc1nc2c(N)ncc(-c3cnn(-c4ccc(C(C)(C)O)nc4)c3)c2nc1NC1CCOCC1` [Compound 347], the results for the IC50 on FLT3 and in the assay with MV4;11 cells were ≤ 10 nM and 10 to 100 nM, respectively.

For the compound `CCc1nc2c(N)ncc(-c3cnn(-c4ncc(C(C)(C)O)cn4)c3)c2nc1NC1CCOCC1` [Compound 348], the IC50 was ≤ 10 nM on FLT3 and 10 to 100 nM in the assay on MV4;11 cells.

`CCc1nc2c(N)ncc(-c3cnn(-c4cnc(C(C)(C)O)nc4)c3)c2nc1NC1CCOCC1` [Compound 349]: the values for the IC50 on FLT3 and in the assay on MV4;11 cells were ≤ 10 nM and 10 to 100 nM, respectively.

As to `CCc1nc2c(N)ncc(-c3cnn(-c4ccc(CNC)cc4)c3)c2nc1NC1CCOCC1` [Compound 350], the IC50 at FLT3 and in the assay with MV4;11 cells was ≤ 10 nM each time.

Turning to `CCc1nc2c(N)ncc(-c3cnn(-c4ccc(C(C)(C)C)cc4)c3)c2nc1N[C@@H]1CC[C@H](O)C1` [Compound 351], the figures for the IC50 on FLT3 and with MV4;11 cells were ≤ 10 nM and 10 to 100 nM, respectively.

As for `CCc1nc2c(N)ncc(-c3cnn(-c4nccc(C(C)(C)O)n4)c3)c2nc1N[C@@H]1CC[C@H](O)C1` [Compound 352], the results for the IC50 on FLT3 and with MV4;11 cells were ≤ 10 nM and 10 to 100 nM, respectively.

For the compound `CCc1nc2c(N)ncc(-c3cnn(-c4ccc(C#N)c(F)c4)c3)c2nc1N[C@@H]1CC[C@H](O)C1` [Compound 353], the IC50 at FLT3 was ≤ 10 nM; in the assay with MV4;11 cells, 10 to 100 nM.

For the compound `CCc1nc2c(N)ncc(-c3cnn(-c4ccc(C(C)(C)O)nn4)c3)c2nc1N[C@@H]1CC[C@H](O)C1` [Compound 354], the results for the IC50 at FLT3 and in the assay with MV4;11 cells were ≤ 10 nM and 10 to 100 nM, respectively.

Consider `CCc1nc2c(N)ncc(-c3cnn(-c4ccc(C(C)(C)O)c(F)c4)c3)c2nc1N[C@@H]1CC[C@H](O)C1` [Compound 355], for which the IC50 at FLT3 and with MV4;11 cells was ≤ 10 nM each time.

For `CCc1nc2c(N)ncc(-c3cnn(-c4cnc(C(C)(C)O)nc4)c3)c2nc1N[C@@H]1CC[C@@H](O)C1` [Compound 356], the IC50 at FLT3 was ≤ 10 nM; in the assay on MV4;11 cells it was 10 to 100 nM.

Regarding `CCc1nc2c(N)ncc(-c3cnn(-c4ccc5c(c4)CCO5)c3)c2nc1N[C@@H]1CC[C@H](O)C1` [Compound 357], the IC50 at FLT3 and with MV4;11 cells was ≤ 10 nM throughout.

With `CCc1nc2c(N)ncc(-c3ccc(NCCNC(=O)[C@H](C)N(C)C(=O)/C=C/CN(C)C)c(OC)c3)c2nc1NC1CCOCC1` [Compound 358, (S,E)-N-(1-((2-((4-(5-amino-3-ethyl-2-((tetrahydro-2H-pyran-4-yl)amino)pyridino[3,4b]pyrazine-8-yl)-2-methoxyphenyl)amino)ethyl)amino)-1-oxopropane-2-yl)-4-(dimethylamino)-N-methylbutyl-2-enamide], the IC50 at FLT3 lay in the range of 10 to 100 nM; with MV4;11 cells, 100 to 500 nM.

Source of the values: patent US12673947B2 (Cytosinlab Therapeutics Co., Ltd., priority 2020, dated 2026).
